Test results: patent US20040102387A1 (priority 2002, published 2004)

target: Botulinum neurotoxin type A (Clostridium botulinum, UniProt P0DPI0); format: cell-based
Sequence (P0DPI0 whole entry, looked up): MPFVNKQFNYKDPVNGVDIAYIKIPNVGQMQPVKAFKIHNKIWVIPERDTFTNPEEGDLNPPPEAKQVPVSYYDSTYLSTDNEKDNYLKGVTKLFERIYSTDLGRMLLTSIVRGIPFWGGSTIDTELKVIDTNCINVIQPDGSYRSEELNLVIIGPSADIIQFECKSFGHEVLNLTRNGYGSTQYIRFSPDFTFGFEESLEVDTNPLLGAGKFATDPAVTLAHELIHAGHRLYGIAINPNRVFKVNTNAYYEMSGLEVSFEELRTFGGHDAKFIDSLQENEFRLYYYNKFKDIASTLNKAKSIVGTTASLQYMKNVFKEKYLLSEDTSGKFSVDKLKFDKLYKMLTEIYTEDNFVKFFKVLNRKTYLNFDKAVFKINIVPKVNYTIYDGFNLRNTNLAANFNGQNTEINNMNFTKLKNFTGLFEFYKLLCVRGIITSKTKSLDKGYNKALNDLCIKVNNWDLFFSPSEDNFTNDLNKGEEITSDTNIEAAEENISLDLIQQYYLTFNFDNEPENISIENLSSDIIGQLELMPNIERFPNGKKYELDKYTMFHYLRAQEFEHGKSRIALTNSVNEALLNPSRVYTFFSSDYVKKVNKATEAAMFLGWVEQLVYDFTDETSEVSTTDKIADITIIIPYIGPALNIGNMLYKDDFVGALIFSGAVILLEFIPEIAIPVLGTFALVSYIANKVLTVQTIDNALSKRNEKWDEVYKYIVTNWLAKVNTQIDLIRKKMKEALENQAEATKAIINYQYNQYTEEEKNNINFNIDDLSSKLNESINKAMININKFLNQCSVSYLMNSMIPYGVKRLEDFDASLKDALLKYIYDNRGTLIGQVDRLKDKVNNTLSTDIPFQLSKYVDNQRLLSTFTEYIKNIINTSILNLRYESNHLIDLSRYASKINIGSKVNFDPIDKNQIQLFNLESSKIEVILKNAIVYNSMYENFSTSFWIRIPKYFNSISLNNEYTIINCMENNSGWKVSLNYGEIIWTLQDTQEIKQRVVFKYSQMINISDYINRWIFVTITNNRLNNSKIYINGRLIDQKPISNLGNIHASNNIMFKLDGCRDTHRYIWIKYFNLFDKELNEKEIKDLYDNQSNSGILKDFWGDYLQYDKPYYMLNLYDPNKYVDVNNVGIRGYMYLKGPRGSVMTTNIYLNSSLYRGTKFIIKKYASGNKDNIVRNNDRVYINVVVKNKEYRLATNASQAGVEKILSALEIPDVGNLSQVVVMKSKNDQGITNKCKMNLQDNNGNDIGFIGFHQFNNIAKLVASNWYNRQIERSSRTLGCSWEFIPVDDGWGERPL

Compound | neurotoxin-neutralizing activity (neuromuscular contractility, FIG. 2)
kaempferol-3-O-glc-(6-1)-rha-(3-1)-glc [third component] | high toxin-neutralizing activities
C[C@@H]1O[C@@H](OC[C@H]2O[C@@H](Oc3c(-c4ccc(O)c(O)c4)oc4cc(O)cc(O)c4c3=O)[C@H](O)[C@@H](O)[C@@H]2O)[C@H](O)[C@H](O)[C@H]1O [first component, rutin] | high toxin-neutralizing activities
kaempferol-3-(O-glc-rha)-4′-O-rha [second component] | high toxin-neutralizing activities
C[C@@H]1O[C@@H](OC[C@H]2O[C@@H](Oc3c(-c4ccc(O)cc4)oc4cc(O)cc(O)c4c3=O)[C@H](O)[C@@H](O)[C@@H]2O)[C@H](O)[C@H](O)[C@H]1O [fourth component, nicotiflorin] | high toxin-neutralizing activities
